Data on six compounds can be found in patent US20030165837A1, “Method for screening DNA binding” (The Scripps Research Institute, priority 2000, published 2003).

In one assay the test system is GC-rich regions. Conditions: fold weaker; cited from earlier work.
The test system of assay [1] is hairpin deoxyoligonucleotides (AATTT, AAAAA, AATAA, ATTAA). The assay is described as follows: Ethidium bromide displacement quantitative titration, Scatchard analysis. Conditions: for binding constant for the hairpin containing AAAAA: ethidium bromide displacement titration. It counts as binding. The protocol: Determination of Binding Constants. Ethidium Bromide/Thiazole Orange Displacement. A 3 mL quartz cuvette was loaded with Tris buffer (0.1 M Tris, 0.1 M, NaCl, pH 8) and ethidium bromide orthiazole orange (0.44×10^−5 M final concentration). […] The hairpin deoxyoligonucleotide of interest was added (1.1 μM, 8.8 μM in bp final concentration), the fluorescence was measured again and normalized to 100% relative fluorescence. A solution of compound (2 μL, 0.1 mM in DMSO) was added and the fluorescence was measured following 5 min of incubation at 23° C. The addition of 2 μL aliquots was continued until the system reached saturation and the fluorescence remained constant with subsequent compound additions.
(§1) Scatchard Analysis of the Titration Curve. The AF was plotted versus molar equivalents of agent and the ΔFsat was determined mathematically by solving the simultaneous equations representing the pre and post saturation regions of the titration curve. Utilizing equations (1)-(3) (FIG. 11), a Scatchard plot was generated where ΔF/[Free Agent] was plotted versus ΔF. The slope of the region immediately preceding complete saturation of the system provided −K.

The test system of assay [2] is library of 512 hairpin deoxyoligonucleotides containing all possible five bp sequences. Kind of assay: Fluorescent intercalator displacement (ethidium bromide) assay, 96-well, 512-member hairpin library. It counts as binding. The note with it: for 3 or 2 bp AT sites, statistical site frequency in the top 50 sequences: FIG. 24; for five bp AT sites found in the top 50 sequences: share of the 16 five bp AT sites; for four bp AT sites found in the top 50 sequences: share of the 32 four bp AT sites; for three bp AT sites found in the top 50 sequences: share of the 80 three bp AT sites. On the procedure:
Ethidium Bromide Assay. […] Prior to use, each deoxyoligonucleotide was diluted to […] in water and stored at 0° C. for no longer than two days. Each well of a Costar black 96-well plate was loaded with Tris buffer containing ethidium bromide (88 μL of a 0.68×10^−5 solution in buffer (0.1 M Tris, 0.1 M NaCl, pH 8), 0.60×10^−5 M ethidium bromide final concentration). To each well was added one hairpin deoxyoligonucleotide (10 μL, 1.2×10^−5 M in DNA bp final concentration) followed by agent (2 μL of a 0.1 mM solution in water, 2.0×10^−6 M final concentration). […] Fluorescence readings are reported as % fluorescence relative to the control wells. Fluorescence plate readers show a variability of ±10%, but surface effects (i.e bubbles, dust) may contribute to larger variations requiring a second set of measurements.
All other experiments described herein (i.e. compound concentration, overall assay concentration, ethidium bromide:DNA ratio, time variability, etc.) utilized this general procedure in a 96-well plate format.

Assay [3] has as its system 136-membered hairpin library containing all possible four bp sites. Kind of assay: Thiazole orange displacement 96-well assay, 136-membered hairpin library. It counts as binding. Conditions: 136 hairpins. The protocol:
A preliminary examination of thiazole orange was conducted to assess the optimal assay concentration range, and to establish its affinity and stoichiometry of binding with representative hairpins (FIG. 10). Thiazole was utilized in both the 96-well format assay and in quantitative titrations for determining binding constants (FIGS. 27 and 28). […] A representative example of the use of thiazole orange in the 96-well format assay is illustrated in FIG. 28 with the assay of netropsin against a 136-membered hairpin library containing all possible four bp sites. […] The mean rank of the ten available 4 bp AT sites was 7.3, whereas the mean positions for the 3 and 2 bp sites were 41.6 and 67.7, respectively. Moreover, the rank order binding across the full ensemble of 4 bp AT sites is consistent with that established in footprinting studies (Portugal, J.; Waring, M. J. Eur. J. Biochem. 1987, 167, 281; Portugal, J.; Waring, M. J. FEBS Lett. 1987, 225, 195; Abu-Daya, A.; et al. Nucleic Acids Res. 1995, 23, 3385; Abu-Daya, A.; Fox, K. R. Nucleic Acids Res. 1997, 25, 4962; Harshman, K. D.; Dervan, P. B. Nucleic Acids Res. 1985, 13, 4825; Van Dyke, M. W.; et al. Proc. Natl. Acad. Sci. USA 1982, 79, 5470; Ward, B.; et al. Biochemistry 1988, 27, 1198; Fish, E. L.; et al. Biochemistry 1988, 27, 6026; Kittler, L.; et al. J. Mol. Recognit. 1999, 12, 121).

A further assay concerns polynucleotides. The assay is described as follows: Binding constants of ethidium bromide and thiazole orange to polynucleotides (FIG. 10, first table). From the text:
FIG. 10 is a table showing the binding constants of ethidium bromide and thiazole orange. […] The variation in the DNA used in the first table is much greater than that used in the second table which explains the greater variation in the ethidium bromide constants.

For assay [4], the system named is hairpin deoxyoligonucleotide. Kind of assay: Direct fluorescence titration of DAPI, Hoechst 33258, ethidium bromide or thiazole orange. Conditions: FIG. 10, second table. It counts as binding. The protocol: Direct Fluorescence Titration of DAPI, Hoechst 33258, Ethidium Bromide or Thiazole Orange. A 3 mL quartz cuvette was loaded with Tris buffer (0.1 M Tris, 0.1 M, NaCl, pH 8) and hairpin deoxyoligonucleotide (1.1 μM, 8.8 μM in bp final concentration). A solution of DAPI (excitation 372 nm; emission 454 nm; 2 μL, 0.1 mM in DMSO), Hoechst 33258 (excitation 358 nm; emission 454 nm; 2 μL, 0.1 mM in DMSO), ethidium bromide (excitation 545 nm; emission 595 nm; 2 μL, 0.5 mM in H2O) or thiazole orange (excitation 509 nm; emission 527 nm; 2 μL, 0.5 mM in DMSO) was added and the fluorescence was measured following 5 min of incubation at 23° C. The addition of 2 μL aliquots was continued until the system reached saturation and the fluorescence remained constant with subsequent additions.
as §1

As for `Cl.Cl.N=C(N)c1ccc(-c2cc3ccc(C(=N)N)cc3[nH]2)cc1` [DAPI, 4′,6-Diamidine-2-phenylindole.2HCl], in the assay with GC-rich regions, the “binding to GC-rich regions by intercalation relative to AT-rich minor groove binding” value is given as 100-1000 fold. In addition, the “binding constant for the hairpin containing AAAAA” value in assay [1] (hairpin containing 5′-AAAAA) was determined as 5e+07 M⁻¹. For the same compound, in assay [2] (512 hairpins), the “sites containing a GC bp central to a five bp AT-rich site in the top 50 sequences” value (shortened to “sites containing a GC bp central”) is recorded as “none”; the “3 or 2 bp AT sites, statistical site frequency in the top 50 sequences” value (from here on “3 or 2 bp AT sites”) is reported as 14%; the “five bp AT sites found in the top 50 sequences” value (“five bp AT sites found” for short) turned out to be 100%; the “four bp AT sites found in the top 50 sequences” value (“four bp AT sites found” for short) turned out to be 72%. Further, the “three bp AT sites found in the top 50 sequences” value (“three bp AT sites found” for short) in assay [2] (512 hairpins) turned out to be 14%. The “% fluorescence decrease” value in assay [2] (non AT-rich hairpins (>150-512), 2 μM) is less than 20%.
Regarding `CN1CCN(c2ccc3[nH]c(-c4ccc5[nH]c(-c6ccc(O)cc6)nc5c4)nc3c2)CC1` [Hoechst 33258], the “binding constants by ethidium bromide displacement relative to direct titration” value in assay [1] (fold weaker than direct titration, four hairpins) is roughly 2 fold. In assay [1] (hairpin containing 5′-AAAAA), the “binding constant for the hairpin containing AAAAA” value worked out at 7.2e+07 M⁻¹. For the same compound, in assay [2] (5 sequences), the “GAAT among the top 50 sequences” value is 10%. In addition, in assay [2] (7 sequences), the “GATT among the top 50 sequences” value came out at 14%. In assay [2] (15 in the top 50), the “top 50 sequences that contain a three bp AT site flanked by a GC bp” value is 30%. Moreover, in assay [2] (15 of the next 30 sequences), the “sequences 21-50 (next 30 after the top 20) that contain a three bp AT site flanked by a GC bp” value is recorded as 50%. For the same compound, in assay [2] (512 hairpins), the “sites containing a GC bp central” value is recorded as “no site containing a GC bp central to a 5 bp AT-rich site is found in the top 50 sequences”; the “3 or 2 bp AT sites” value is 19%; the “five bp AT sites found” value was determined as 100%; the “four bp AT sites found” value is given as 59%. Besides, the fluorescent decrease in assay [2] (hairpins >100-150) is given as less than 20%.
Take `CC(=O)NCC(=O)O.CC(=O)NCC(=O)O.N=C(N)c1ccc(N=NNc2ccc(C(=N)N)cc2)cc1` [berenil]: in assay [1] (hairpin containing 5′-AAAAA), the “binding constant for the hairpin containing AAAAA” value worked out at 6.4e+06 M⁻¹. In assay [2] (512 hairpins), the “3 or 2 bp AT sites” value came out at 15%; the “five bp AT sites found” value amounted to 100%; the “four bp AT sites found” value is 66%; the “three bp AT sites found” value was found to be 15%.
On to `Cn1cc(NC(=O)c2cc(NC(=O)c3cc(NC=O)cn3C)cn2C)cc1C(=O)NCCC(=N)N` [distamycin A], for which the “binding constant for the hairpin containing AAAAA” value in assay [1] (hairpin containing 5′-AAAAA) was 1.7e+07 M⁻¹. In addition, in assay [2] (512 hairpins), the “3 or 2 bp AT sites” value turned out to be 27%; the “five bp AT sites found” value worked out at 88%; the “four bp AT sites found” value was found to be 47%; the “three bp AT sites found” value is given as 13%. In addition, in assay [2] (share of the 16 such hairpin sites), the “hairpin sites with a GC bp central to a five bp AT-rich site found in the top 50 sequences” value came to 44%. Moreover, the “two bp AT sites found in the top 50 sequences” value in assay [2] (share of the 176 two bp AT sites, 512 hairpins) is recorded as 6%. Also, the “top 50 sequences that contain a GC bp central to a five bp AT-rich site” value in assay [2] (share of the top 50 sequences) stood at 14%.
For `Cn1cc(NC(=O)c2cc(NC(=O)CN=C(N)N)cn2C)cc1C(=O)NCCC(=N)N` [netropsin], in assay [1] (hairpin containing 5′-AAAAA), the “ethidium bromide displaced at saturation binding” value is recorded as “essentially all the ethidium bromide” and the “binding constant for the hairpin containing AAAAA” value came out at 3.47e+08 M⁻¹. Besides, in assay [3], the “mean position of the 2 bp AT sites” value is listed as 67.7, the “mean position of the 3 bp AT sites” value was found to be 41.6 and the “mean rank of the ten available 4 bp AT sites” value was found to be 7.3. The “rank (sequence no.) of ATTTA” value in assay [2] (1.0 μM netropsin) is on record as 3. For the same compound, the “rank (sequence no.) of ATTTA” value in assay [2] (2.0 μM netropsin) came to 1. Moreover, in assay [2] (512 hairpins), the “sites containing a GC bp central” value is “no AT-rich sequence interrupted by a central GC bp appears in the top 50 sequences”; the “3 or 2 bp AT sites” value turned out to be 9%; the “five bp AT sites found” value amounted to 100%; the “four bp AT sites found” value came to 84%. The “three bp AT sites found” value in assay [2] (512 hairpins) stood at 9%.
In the case of `CN1C(=Cc2cc[n+](C)c3ccccc23)Sc2ccccc21` [thiazole orange], in the assay on polynucleotides, the “difference in binding constant between polynucleotides” value is given as “no difference”. For the same compound, the “difference in binding constants between hairpins” value in assay [4] is reported as 1.3 fold.
